Values after ≈ are worked out from the molar mass of the structure shown. Values joined by “and” are separate entries in the source; they are usually repeats but may differ in a detail not shown here. Equal entries are not always repeated. Where two headings read alike, the source gives them in different places.
Tests used:
[1] = test system: A. baumannii ATCC BAA747; experiment: MIC by broth microdilution; assay type: cell-based
Experimental: MIC was determined by broth microdilution. Single-colony cultures were grown to exponential phase (OD600 of 0.5) aerobically at 37 °C. In case of strains from the Keio collection, 50 µg ml^−1 kanamycin was supplemented to the media to ascertain a homogeneous population. The bacterial suspensions were diluted 100-fold in CAMHB and 50 µl was added to a twofold serial dilution series of test compounds (50 µl per well) in polypropylene 96-well microtitre plates to reach a volume of 100 µl. The plates were sealed with breathable membranes and incubated overnight at 37 °C with constant shaking (600 r.p.m.). The MIC was determined as the lowest concentration at which no visible bacterial growth was observed as compared with the inoculum controls from the median of a minimum of triplicates.

[2] = test system: E. coli W3110; experiment: Checkerboard assay with PMBN;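 as to checkerboard plate reading, Average values: OD600 read after 20 h incubation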
[3] = test system: HepG2; experiment: Cytotoxicity assay (MTT); assay type: cell-based, human; conditions: for IC50: MTT, 24 h
[4] = test system: HEK293T; experiment: Cytotoxicity assay (MTT); assay type: cell-based, human; conditions: for MTT data (raw readout): HEK293T; for IC50: 24 h, MTT
In short: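 HEK293T cells, maintained at 37 °C and 7% CO2 in Dulbecco’s modified Eagle medium with GlutaMax, antibiotics and serum, were plated in clear 96-well plates in 100 µl medium containing 1% fetal bovine serum and left 24 h to attach. After 24 h compound exposure, MTT (0.40 mg ml^−1) was added for 2 h. Formazan was dissolved in 100 µl DMSO and absorbance measured at 570 nm. Background-corrected IC50 values came from variable-slope non-linear fits.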

With `O=C(O)c1cn(C2CC2)c2cc(N3CCNCC3)c(F)cc2c1=O` [CIP, ciprofloxacin] the MIC ([1]; Acinetobacter baumannii, ATCCBAA747, read-out: MIC A. baumannii ATCC BAA747) was 0.755 µM (≈ 0.25 µg/mL), the “checkerboard plate reading, Average values” (“checkerboard plate reading” for short) ([2]; Ciprofloxacin 1.5625 nM + PMBN 1 µM) was 0.8906 and the “checkerboard plate reading” value ([2]; Ciprofloxacin 1.5625 nM + PMBN 2 µM) was 0.8911. The “checkerboard plate reading” value ([2]; Ciprofloxacin 1.5625 nM + PMBN 4 µM) was 0.726, the “checkerboard plate reading” value ([2]; Ciprofloxacin 1.5625 nM + PMBN 8 µM) was 0.6303 and the “checkerboard plate reading” value ([2]; Ciprofloxacin 3.125 nM + PMBN 0 µM) was 0.9278. The “checkerboard plate reading” value ([2]; Ciprofloxacin 3.125 nM + PMBN 0.5 µM) was 0.8723, the “checkerboard plate reading” value ([2]; Ciprofloxacin 3.125 nM + PMBN 1 µM) was 0.849 and the “checkerboard plate reading” value ([2]; Ciprofloxacin 3.125 nM + PMBN 2 µM) was 0.8236. For the same compound, the “checkerboard plate reading” value ([2]; Ciprofloxacin 3.125 nM + PMBN 4 µM) was 0.7354, the “checkerboard plate reading” value ([2]; Ciprofloxacin 3.125 nM + PMBN 8 µM) was 0.666 and the “checkerboard plate reading” value ([2]; Ciprofloxacin 3.125 nM + PMBN 16 µM) was 0.8076. The “checkerboard plate reading” value ([2]; Ciprofloxacin 3.125 nM + PMBN 32 µM) was 0.5963, the “checkerboard plate reading” value ([2]; Ciprofloxacin 6.25 nM + PMBN 0 µM) was 0.8608 and the “checkerboard plate reading” value ([2]; Ciprofloxacin 6.25 nM + PMBN 0.5 µM) was 0.801. The “checkerboard plate reading” value ([2]; Ciprofloxacin 6.25 nM + PMBN 1 µM) was 0.7994, the “checkerboard plate reading” value ([2]; Ciprofloxacin 6.25 nM + PMBN 2 µM) was 0.8003 and the “checkerboard plate reading” value ([2]; Ciprofloxacin 6.25 nM + PMBN 4 µM) was 0.7289. The “checkerboard plate reading” value ([2]; Ciprofloxacin 6.25 nM + PMBN 8 µM) was 0.6534, the “checkerboard plate reading” value ([2]; Ciprofloxacin 6.25 nM + PMBN 16 µM) was 0.5862 and the “checkerboard plate reading” value ([2]; Ciprofloxacin 6.25 nM + PMBN 32 µM) was 0.4866. For the same compound, the “checkerboard plate reading” value ([2]; Ciprofloxacin 12.5 nM + PMBN 0 µM) was 0.8404, the “checkerboard plate reading” value ([2]; Ciprofloxacin 12.5 nM + PMBN 0.5 µM) was 0.7355 and the “checkerboard plate reading” value ([2]; Ciprofloxacin 12.5 nM + PMBN 1 µM) was 0.7301. For the same compound, the “checkerboard plate reading” value ([2]; Ciprofloxacin 12.5 nM + PMBN 2 µM) was 0.723, the “checkerboard plate reading” value ([2]; Ciprofloxacin 12.5 nM + PMBN 4 µM) was 0.67 and the “checkerboard plate reading” value ([2]; Ciprofloxacin 12.5 nM + PMBN 8 µM) was 0.5682. For the same compound, the “checkerboard plate reading” value ([2]; Ciprofloxacin 12.5 nM + PMBN 16 µM) was 0.6754, the “checkerboard plate reading” value ([2]; Ciprofloxacin 12.5 nM + PMBN 32 µM) was 0.5017 and the “checkerboard plate reading” value ([2]; Ciprofloxacin 25 nM + PMBN 0 µM) was 0.4892. The “checkerboard plate reading” value ([2]; Ciprofloxacin 25 nM + PMBN 0.5 µM) was 0.5201, the “checkerboard plate reading” value ([2]; Ciprofloxacin 25 nM + PMBN 1 µM) was 0.4961 and the “checkerboard plate reading” value ([2]; Ciprofloxacin 25 nM + PMBN 2 µM) was 0.4386. For the same compound, the “checkerboard plate reading” value ([2]; Ciprofloxacin 25 nM + PMBN 4 µM) was 0.4173, the “checkerboard plate reading” value ([2]; Ciprofloxacin 25 nM + PMBN 8 µM) was 0.2541 and the “checkerboard plate reading” value ([2]; Ciprofloxacin 25 nM + PMBN 16 µM) was 0.196. For the same compound, the “checkerboard plate reading” value ([2]; Ciprofloxacin 25 nM + PMBN 32 µM) was 0.2103, the “checkerboard plate reading” value ([2]; Ciprofloxacin 50 nM + PMBN 0 µM) was 0.1991 and the “checkerboard plate reading” value ([2]; Ciprofloxacin 50 nM + PMBN 0.5 µM) was 0.2079. For the same compound, the “checkerboard plate reading” value ([2]; Ciprofloxacin 50 nM + PMBN 1 µM) was 0.2136, the “checkerboard plate reading” value ([2]; Ciprofloxacin 50 nM + PMBN 2 µM) was 0.1771 and the “checkerboard plate reading” value ([2]; Ciprofloxacin 50 nM + PMBN 4 µM) was 0.1678. The “checkerboard plate reading” value ([2]; Ciprofloxacin 50 nM + PMBN 8 µM) was 0.1671, the “checkerboard plate reading” value ([2]; Ciprofloxacin 50 nM + PMBN 16 µM) was 0.1685 and the “checkerboard plate reading” value ([2]; Ciprofloxacin 50 nM + PMBN 32 µM) was 0.1738. For the same compound, the MIC ([2]; Escherichia coli, W3110) was 0.05 µM, the “MIC E. coli + 8 μM PMBN” value ([2]; LPS disruption (pharmacological)) was 0.024 µM and the “synergy with PMBN” value ([2]; checkerboard) was “does not have an effect and none”. For the same compound, the MSC ([2]; checkerboard with PMBN, E. coli W3110) was 0.025 µM.

In the case of `O=S(=O)(NCCNCc1ccc(-c2ccc(F)nc2)cc1)c1cccc2cnccc12` [Compound 60], the MIC ([1]; Acinetobacter baumannii, ATCCBAA747; read-out: MIC A. baumannii ATCC BAA747) is reported as > 50 µM, the “MTT data (raw readout)” value ([3]; HepG2, 0.023 uM, experiment n = 1, technical triplicates) is reported as 0.514 and 0.522 and 0.506 and the “MTT data (raw readout)” value ([3]; HepG2, 0.023 uM, experiment n = 2, technical triplicates) is reported as 0.553 and 0.550 and 0.561. The “MTT data (raw readout)” value ([3]; HepG2, 0.068 uM, experiment n = 1, technical triplicates) was 0.526 and 0.514 and 0.522, the “MTT data (raw readout)” value ([3]; HepG2, 0.068 uM, experiment n = 2, technical triplicates) was 0.571 and 0.568 and 0.585 and the “MTT data (raw readout)” value ([3]; HepG2, 0.21 uM, experiment n = 1, technical triplicates) was 0.544 and 0.520 and 0.508. For the same compound, the “MTT data (raw readout)” value ([3]; HepG2, 0.21 uM, experiment n = 2, technical triplicates) was 0.610 and 0.553 and 0.611, the “MTT data (raw readout)” value ([3]; HepG2, 0.62 uM, experiment n = 1, technical triplicates) was 0.525 and 0.501 and 0.502 and the “MTT data (raw readout)” value ([3]; HepG2, 0.62 uM, experiment n = 2, technical triplicates) was 0.621 and 0.610 and 0.573. For the same compound, the “MTT data (raw readout)” value ([3]; HepG2, 1.85 uM, experiment n = 1, technical triplicates) was 0.546 and 0.544 and 0.528, the “MTT data (raw readout)” value ([3]; HepG2, 1.85 uM, experiment n = 2, technical triplicates) was 0.581 and 0.605 and the IC50 ([3]; Homo sapiens, HepG2, 24 h) was > 100 µM. For the same compound, the IC50 [3] was > 50 µM, the “cytotoxicity” value ([4]; HEK293T and HepG2) was “lowest cytotoxicity” and the “MTT data (raw readout)” value ([4]; 0.023 uM, experiment n = 1, technical triplicates) was 0.733 and 0.692. For the same compound, the “MTT data (raw readout)” value ([4]; 0.023 uM, experiment n = 2, technical triplicates) was 0.767 and 0.777 and 0.816, the “MTT data (raw readout)” value ([4]; 0.068 uM, experiment n = 1, technical triplicates) was 0.746 and 0.796 and 0.737 and the “MTT data (raw readout)” value ([4]; 0.068 uM, experiment n = 2, technical triplicates) was 0.800 and 0.790 and 0.829. The “MTT data (raw readout)” value ([4]; 0.21 uM, experiment n = 1, technical triplicates) was 0.734 and 0.766 and 0.710, the “MTT data (raw readout)” value ([4]; 0.21 uM, experiment n = 2, technical triplicates) was 0.783 and 0.732 and 0.731 and the “MTT data (raw readout)” value ([4]; 0.62 uM, experiment n = 1, technical triplicates) was 0.735 and 0.740 and 0.733. The “MTT data (raw readout)” value ([4]; 0.62 uM, experiment n = 2, technical triplicates) was 0.809 and 0.824 and 0.770, the “MTT data (raw readout)” value ([4]; 1.85 uM, experiment n = 1, technical triplicates) was 0.725 and 0.718 and 0.739 and the “MTT data (raw readout)” value ([4]; 1.85 uM, experiment n = 2, technical triplicates) was 0.764 and 0.783 and 0.787. For the same compound, the IC50 ([4]; Homo sapiens, HEK-293T) was 51 µM and the IC50 [4] was > 50 µM.
